The term Ki denotes a measure of affinity in units of concentration, obtained from inhibition or displacement. Lower therefore signals a stronger hold on the target.

This test deals with T1, matrix metalloproteinase 9 (MMP-9) (Homo sapiens, UniProt P14780).
T1 construct: gene MMP9; recombinant catalytic domain of MMP-9 (CDMMP-9), 39 kDa, aa 107–457 + NT His Tag
Description: fluorometric inhibition assay with self-quenched peptide substrate; double reciprocal and secondary plots. The test is classed as biochemical. The source says: fluorometric inhibition assay with self-quenched peptide substrate; double reciprocal and secondary plots on matrix metalloproteinase 9 (MMP-9) | competitive inhibition of the activity performed by the MMP-9 catalytic domain (CDMMP-9) (Figure 3A), and allowed to define a Ki

T1 sequence (P14780 107-457): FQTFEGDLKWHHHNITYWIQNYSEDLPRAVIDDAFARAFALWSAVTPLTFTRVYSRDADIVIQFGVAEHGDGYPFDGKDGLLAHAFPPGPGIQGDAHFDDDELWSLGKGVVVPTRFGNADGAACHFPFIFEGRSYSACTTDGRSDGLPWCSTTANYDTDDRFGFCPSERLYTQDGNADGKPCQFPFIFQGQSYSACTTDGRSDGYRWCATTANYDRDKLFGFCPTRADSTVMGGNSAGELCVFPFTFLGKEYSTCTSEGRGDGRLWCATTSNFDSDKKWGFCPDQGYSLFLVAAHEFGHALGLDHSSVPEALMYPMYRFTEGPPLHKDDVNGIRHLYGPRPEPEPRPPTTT

Take `O=C(/C=C/c1ccc(O)c2c1[C@H](C(=O)O[C@H](Cc1ccc(O)c(O)c1)C(=O)O)[C@@H](c1ccc(O)c(O)c1)O2)O[C@H](Cc1ccc(O)c(O)c1)C(=O)O` [SalB, Salvianolic acid B]: the inhibitory constant (Ki) came out at 57.4 ± 3.96 µM.

These data come from PMC9740829, “Salvianolic Acid B Strikes Back: New Evidence in the Modulation of Expression and Activity of Matrix Metalloproteinase 9 in MDA-MB-231 Human Breast Cancer Cells” (Molecules, 2022).
